Legend:
[1] = test system: Mycobacterium tuberculosis; assay: Antimycobacterial activity against Mycobacterium tuberculosis H37Rv ATCC 27294 assessed as growth inhibition at 6.25 ug/mL after 4 days by microplate alamar blue assay; assay type: functional; details: H37Rv ATCC 27294, 96 h, read-out: GI
[2] = test system: Mycobacterium tuberculosis; assay: Antimycobacterial activity against Mycobacterium tuberculosis H37Rv ATCC 27294 assessed as growth inhibition at 12.5 ug/mL after 4 days by microplate alamar blue assay; assay type: functional; details: H37Rv ATCC 27294, 96 h, read-out: GI

| SMILES | inhibition of growth at 6.25 µg/mL [1] | inhibition of growth at 12.5 µg/mL [2] |
| --- | --- | --- |
| NNC(=S)Nc1ccc(-c2nnc(S)o2)cc1 [STEMAZOLE] | 0% | – |
| NN=C(S)Nc1cccc(-c2nnc(S)o2)c1 | 0% | – |
| NC(=S)Nc1ccc(-c2nnc(SCC(=O)c3ccc(Cl)cc3Cl)o2)cc1 | – | 93% |
| CNC(=S)Nc1ccc(-c2nnc(S)o2)cc1 | 0% | – |
| S=C(Nc1cccc(-c2nnc(S)o2)c1)Nn1cnnc1 | 13% | – |
| CSc1nnc(-c2ccc(NC(=S)Nn3cnnc3)cc2)o1 | 58% | – |
| NC(=S)Nc1ccc(-c2nnc(Sc3ncccn3)o2)cc1 | 87% | – |
| OCCNC(=S)Nc1cccc(-c2nnc(SCCc3ccccc3)o2)c1 | 13% | – |
| O=C(CSc1nnc(-c2ccc(NC(=S)NCCO)cc2)o1)c1ccc(Cl)cc1Cl | – | 98% |
| O=C(CSc1nnc(-c2ccc(NC(=S)NCCO)cc2)o1)c1ccccc1 | – | 96% |
| CCNC(=S)Nc1ccc(-c2nnc(S)o2)cc1 | 0% | – |
| O=C(CSc1nnc(-c2cccc(N=C=S)c2)o1)c1ccc(Cl)cc1Cl | 0% | – |
| NC(=S)Nc1cccc(-c2nnc(SCC(=O)c3ccc4ccccc4c3)o2)c1 | 16% | – |
| O=C(CSc1nnc(-c2cccc(N=C=S)c2)o1)c1ccc(Cl)cc1 | 0% | – |
| CSc1nnc(-c2cccc(NC(=S)Nc3ccc(C)cc3)c2)o1 | 21% | – |
| CN(C)C(=S)Nc1cccc(-c2nnc(SCC(=O)c3ccccc3)o2)c1 | 9% | – |
| OCCNC(=S)Nc1ccc(-c2nnc(SCc3ccncc3)o2)cc1 | 25% | – |
| S=C(Nc1ccc(-c2nnc(S)o2)cc1)N1CCCCC1 | 28% | – |
| NC(=S)Nc1cccc(-c2nnc(SCCc3ccccc3)o2)c1 | 16% | – |
| S=C=Nc1cccc(-c2cnc(SCCc3ccccc3)o2)c1 | 0% | – |
| S=C=Nc1ccc(-c2nnc(S)o2)cc1 | 2% | – |

| SMILES | inhibition of growth at 6.25 µg/mL [1] | inhibition of growth at 12.5 µg/mL [2] |
| --- | --- | --- |
| S=C(Nc1cccc(-c2nnc(S)o2)c1)N1CCCCC1 | 13% | – |
| C=CCSc1nnc(-c2cccc(N=C=S)c2)o1 | 3% | – |
| CSc1nnc(-c2ccc(NC(=S)NCCO)cc2)o1 | 67% | – |
| O=C(CSc1nnc(-c2ccc(NC(=S)NCCO)cc2)o1)c1ccc(F)cc1 | 90% | – |
| CSc1nnc(-c2ccc(NC(=S)N3CCOCC3)cc2)o1 | 0% | – |
| CN(C)C(=S)Nc1cccc(-c2nnc(SCC(=O)c3ccc(Cl)cc3Cl)o2)c1 | 1% | – |
| CC(C)=NNC(=S)Nc1cccc(-c2nnc(S)o2)c1 | 16% | – |
| NC(=S)Nc1cccc(-c2nnc(SCc3ccccc3)o2)c1 | 0% | – |
| C=CCNC(=S)Nc1cccc(-c2nnc(S)o2)c1 | 0% | – |
| O=C(CSc1nnc(-c2cccc(NC(=S)NCCO)c2)o1)c1ccc(Br)cc1 | 17% | – |
| O=C(CSc1nnc(-c2cccc(N=C=S)c2)o1)c1ccc2ccccc2c1 | 0% | – |
| O=C(CSc1nnc(-c2ccc(N=C=S)cc2)o1)c1ccccc1 | 22% | – |
| S=C=Nc1ccc(-c2nnc(SCc3ccncc3)o2)cc1 | 27% | – |
| O=C(CSc1nnc(-c2cccc(N=C=S)c2)o1)c1ccc(F)cc1 | 5% | – |
| CSc1nnc(-c2cccc(NC(=S)NN(C)C)c2)o1 | 8% | – |
| NC(=S)Nc1ccc(-c2nnc(SCc3ccncc3)o2)cc1 | – | 97% |
| Cc1ccc(C(=O)CSc2nnc(-c3cccc(NC(=S)N(C)C)c3)o2)cc1 | 10% | – |
| CN(C)C(=S)Nc1cccc(-c2nnc(SCC(=O)c3ccc4ccccc4c3)o2)c1 | 0% | – |
| C=CCSc1nnc(-c2ccc(NC(=S)NCCO)cc2)o1 | – | 96% |
| C=CCNC(=S)Nc1ccc(-c2nnc(S)o2)cc1 | 6% | – |
| NC(S)=Nc1cccc(-c2nnc(S)o2)c1 | 13% | – |

| SMILES | inhibition of growth at 6.25 µg/mL [1] | inhibition of growth at 12.5 µg/mL [2] |
| --- | --- | --- |
| CN(C)C(=S)Nc1cccc(-c2nnc(SCC(=O)c3ccc(Cl)cc3)o2)c1 | 18% | – |
| OCCNC(=S)Nc1ccc(-c2nnc(SCc3ccccc3)o2)cc1 | – | 97% |
| CSc1nnc(-c2ccc(NC(=S)NN)cc2)o1 | 0% | – |
| NC(=S)Nc1cccc(-c2nnc(SCC(=O)c3ccccc3)o2)c1 | 0% | – |
| CSc1nnc(-c2cccc(NC(=S)NCCO)c2)o1 | 8% | – |
| NC(=S)Nc1ccc(-c2nnc(SCc3ccccc3)o2)cc1 | – | 91% |
| O=C(CSc1nnc(-c2cccc(NC(=S)NCCO)c2)o1)c1ccc(F)cc1 | 0% | – |
| O=C(CSc1nnc(-c2ccc(N=C=S)cc2)o1)c1ccc(F)cc1 | 12% | – |
| CSc1nnc(-c2cccc(NC(=S)N3CCOCC3)c2)o1 | 0% | – |
| CNC(=S)Nc1cccc(-c2nnc(SCC(=O)c3ccc4ccccc4c3)o2)c1 | 0% | – |
| CSc1nnc(-c2cccc(NC(S)=NN)c2)o1 | 0% | – |
| NC(=S)Nc1cccc(-c2nnc(SCC(=O)c3ccc(F)cc3)o2)c1 | 19% | – |
| CSc1nnc(-c2cccc(NC(N)=S)c2)o1 | 25% | – |
| O=C(CSc1nnc(-c2cccc(N=C=S)c2)o1)c1ccc(Br)cc1 | 0% | – |
| NC(=S)Nc1cccc(-c2nnc(SCC(=O)c3ccc(Cl)cc3Cl)o2)c1 | 0% | – |
| NC(=S)Nc1cccc(-c2nnc(SCC(=O)c3ccc(Br)cc3)o2)c1 | 6% | – |
| O=C(CSc1nnc(-c2ccc(N=C=S)cc2)o1)c1ccc(Cl)cc1Cl | 2% | – |
| O=C(CSc1nnc(-c2cccc(NC(=S)NCCO)c2)o1)c1ccccc1 | 12% | – |
| C/C(=N/NC(=S)Nc1cccc(-c2nnc(S)o2)c1)c1ccccc1 | 20% | – |
| S=C=Nc1ccc(-c2nnc(SCc3ccccc3)o2)cc1 | 20% | – |
| O=C(CSc1nnc(-c2cccc(NC(=S)NCCO)c2)o1)c1ccc2ccccc2c1 | 0% | – |

| SMILES | inhibition of growth at 6.25 µg/mL [1] | inhibition of growth at 12.5 µg/mL [2] |
| --- | --- | --- |
| CN(C)NC(=S)Nc1ccc(-c2nnc(S)o2)cc1 | 9% | – |
| NC(=S)Nc1ccc(-c2nnc(SCC(=O)c3ccccc3)o2)cc1 | 61% | – |
| OCCNC(=S)Nc1ccc(-c2nnc(S)o2)cc1 | 9% | – |
| O=C(CSc1nnc(-c2cccc(NC(=S)NCCO)c2)o1)c1ccc(Cl)cc1Cl | 0% | – |
| CSc1nnc(-c2ccc(NC(=S)Nc3ccc(C)cc3)cc2)o1 | 17% | – |
| NC(=S)Nc1cccc(-c2nnc(SCC(=O)c3ccc(Cl)cc3)o2)c1 | 0% | – |
| Cc1ccc(NC(=S)Nc2ccc(-c3nnc(S)o3)cc2)cc1 | 5% | – |
| CSc1nnc(-c2ccc(NC(N)=S)cc2)o1 | 78% | – |
| S=C=Nc1cccc(-c2nnc(S)o2)c1 | 9% | – |
| C=CCSc1nnc(-c2ccc(NC(N)=S)cc2)o1 | – | 98% |
| OCCNC(=S)Nc1ccc(-c2nnc(Sc3ncccn3)o2)cc1 | 14% | – |
| Cc1ccc(NC(S)=Nc2cccc(-c3nnc(S)o3)c2)cc1 | 18% | – |
| NC(=S)Nc1ccc(-c2nnc(S)o2)cc1 | 70% | – |
| CSc1nnc(-c2ccc(N=C=S)cc2)o1 | 37% | – |
| CSc1nnc(-c2cccc(NC(=S)Nn3cnnc3)c2)o1 | 58% | – |
| C=CCSc1nnc(-c2ccc(N=C=S)cc2)o1 | 56% | – |
| S=C=Nc1ccc(-c2nnc(Sc3ncccn3)o2)cc1 | 14% | – |
| CN(C)NC(=S)Nc1cccc(-c2nnc(S)o2)c1 | 5% | – |
| S=C=Nc1cccc(-c2nnc(SCc3ccccc3)o2)c1 | 0% | – |
